The values below come from US20110207723A1, “NOVEL FUSED AMINODIHYDROTHIAZINE DERIVATIVE” (EISAI R&D MANAGEMENT CO., LTD., priority 2008, published 2011).

The assay relates to Aβ42 production. Nature of the assay: Quantification of Aβ peptide in culture of neurons from rat fetus brain (Aβ42 ELISA). The following applies: Neuron, 72 h, rat primary neuronal culture (embryonic day 18 Wistar rat cerebral cortex), medium collected three days after addition of compound, read-out: Aβ42 production reducing effect IC50. The class given is cell-based. In a few lines: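 Primary cortical neurons from E18 Wistar rat embryos, cultured 4 days in Neurobasal/B27/2-ME, then treated 3 days with compound in Neurobasal/B27 (final DMSO 1% or less; DMSO control). Conditioned medium collected; Aβx-42 measured undiluted by sandwich ELISA kit.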
In general terms: In an ELISA, binding on a coated surface is turned into a signal by an enzyme label.
The term IC50 denotes the concentration at which inhibition is half-maximal. In the case of `C[C@H]1C[C@H]2CSC(N)=N[C@@]2(c2cc(NC(=O)c3ccc(Cl)cn3)ccc2F)CO1` (relative stereo) [Example 6, N-[3-((4aR*,6S*,8aS*)-2-amino-6-methyl-4,4a,5,6-tetrahydro-7-oxa-3-thia-1-azanaphthalen-8a-yl)-4-fluorophenyl]-5-chloropyridine-2-carboxamide], the IC50 stood at 1.2 nM. As for `N#Cc1ccc(C(=O)Nc2ccc(F)c([C@]34CO[C@@H](CO)C[C@H]3CSC(N)=N4)c2)nc1` [Example 34, N-[3-((4aR,6R,8aS)-2-amino-6-hydroxymethyl-4,4a,5,6-tetrahydro-7-oxa-3-thia-1-azanaphthalen-8a-yl)-4-fluorophenyl]-5-cyanopyridine-2-carboxamide], the figure is 2 nM. As for `NC1=N[C@@]2(c3cc(NC(=O)c4ccc(Cl)cn4)ccc3F)COCC[C@H]2CS1` (single isomer, unassigned) [Example 49, N-[3-((4aR*,8aS*)-2-amino-4,4a,5,6-tetrahydro-7-oxa-3-thia-1-azanaphthalen-8a-yl)-4-fluorophenyl]-5-chloropyridine-2-carboxamide], the figure is 2 nM; as for `C[C@H]1COC[C@]2(c3cc(NC(=O)c4ccc(C#N)cn4)ccc3F)N=C(N)SC[C@H]12` (relative stereo) [Example 27, N-[3-((4aR*,5R*,8aS*)-2-amino-5-methyl-4,4a,5,6-tetrahydro-7-oxa-3-thia-1-azanaphthalen-8a-yl)-4-fluorophenyl]-5-cyanopyridine-2-carboxamide], 8 nM. As for `C[C@H]1SC(N)=N[C@@]2(c3cc(NC(=O)c4ccc(C#N)cn4)ccc3F)COCC[C@@H]12` (relative stereo) [Example 31, N-[3-((2R*,4aR*,8aS*)-2-amino-4-methyl-4,4a,5,6-tetrahydro-7-oxa-3-thia-1-azanaphthalen-8a-yl)-4-fluorophenyl]-5-cyanopyridine-2-carboxamide], the figure is 1.9 nM.

Consider `N#Cc1ccc(C(=O)Nc2csc(C34COCCC3CSC(N)=N4)c2)nc1` (stereo in doubt) [Example 64, N-[5-((4aR*,8aS*)-2-amino-4,4a,5,6-tetrahydro-7-oxa-3-thia-1-azanaphthalen-8a-yl)thiophen-3-yl]-5-cyanopyridine-2-carboxamide], for which the concentration for half-maximal inhibition (IC50) was determined as 14 nM. As for `NC1=N[C@@]2(c3cc(NC(=O)c4cnc(OCF)cn4)ccc3F)COCC[C@H]2CS1` (relative stereo) [Example 2, N-[348S*,8aR*)-2-amino-4,4a,5,6-tetrahydro-7-oxa-3-thia-1-azanaphthalen-8a-yl)-4-fluorophenyl]-5-fluoromethoxypyrazine-2-carboxamide], the figure is 2 nM.

In the case of `COC[C@H]1C[C@H]2CSC(N)=N[C@@]2(c2cc(NC(=O)c3cnc(C(F)F)cn3)ccc2F)CO1` (relative stereo) [Example 12, N-[3-((4aR*,6R*,8aS*)-2-amino-6-methoxymethyl-4,4a,5,6-tetrahydro-7-oxa-3-thia-1-azanaphthalen-8a-yl)-4-fluorophenyl]-5-difluoromethylpyrazine-2-carboxamide], the IC50 is 1.1 nM.

On to `NC1=N[C@@]2(c3cc(-c4cccnc4F)ccc3F)CO[C@@H](C(F)(F)F)C[C@H]2CS1` (relative stereo) [Example 59, (±)-(4aR*,6R*,8aS*)-8a-[2-fluoro-5-(2-fluoropyridin-3-yl)phenyl]-6-trifluoromethyl-4,4a,5,6,8,8a-hexahydro-7-oxa-3-thia-1-azanaphthalen-2-ylamine], for which the IC50 came to 87 nM.

`NC1=N[C@@]2(c3cc(NC(=O)c4ccc(OC(F)F)cn4)ccc3F)CO[C@@H](C(F)(F)F)C[C@H]2CS1` (relative stereo) [Example 42, N-[3-((4aR*,6R*,8aS*)-2-amino-6-trifluoromethyl-4,4a,5,6-tetrahydro-7-oxa-3-thia-1-azanaphthalen-8a-yl)-4-fluorophenyl]-5-difluoromethoxypyridine-2-carboxamide]: the concentration for half-maximal inhibition (IC50) turned out to be 0.9 nM.
